# Measured values published in US20130338092A1, “COMPOUNDS AND METHODS FOR TARGETING LEUKEMIC STEM CELLS” (The Broad Institute, Inc., priority 2011, published 2013).
# Entries after “also recorded” stand apart in the source; their conditions may differ. Read-outs that look alike come from different tables or passages of the source.
# Tests used:
# [1] = system: normal HSPCs; experiment: Normal HSPC coculture on primary MSC stroma
# Method: The material was cleaned, crushed and sequentially passed through 100 and 70 μM filters (Falcon). […] The biotin-labeled cells were spun down, resuspended in 0.5% FBS in PBS, and incubated for 15-30 minutes at 4° C. with agitation with 1 mL of Dynabead M-280 streptavidin-linked magnetic beads per 4 mice. The bead-linked cells were depleted using magnetic separation and rinsed once. The lineage- and CD48-depleted cell fraction was labeled with streptavidin-APC-Cy7 antibody from BD Biosciences and c-kit-APC, Sca-1-FITC, CD48-Pacific Blue, and CD150 PE-Cy7 antibodies from eBioscience. DsRed-positive lineage-Sca-1+c-kit+CD48− HSCs were sorted using a FACS DiVa or FACS ARIA (BD Biosciences).
# A total of 20 μL of 20 μg/mL fibronectin (Millipore) in PBS was added to each well of a 384-well clear-bottomed black tissue-culture treated plate (Corning) and incubated for 30-120 minutes at 33° C. or 37° C. […] The fibronectin solution was removed from each well using a 24-channel wand aspirator; then 30 μL of BMSC solution was added to plate 2000 BMSCs/well. […] Each plate was covered with a sterile rayon breathable membrane (VWR) and plastic lid, and then spun at 500 rpm (approximately 60× gravity) with slow braking. The plates were incubated at room temperature for 60-90 minutes before incubation at 33° C. with 5% CO2 for 3 days prior to HSC addition.
# The sorted HSCs, SLAMs and progenitor cells were resuspended in phenol-red free alpha-MEM with 20% FBS and diluted to 10,000 cells/mL. A total of 20 μL of cell solution containing 200 hematopoietic cells was added to each well using a multichannel pipettor or liquid-dispensing system. Each plate was covered with a sterile rayon breathable membrane (VWR) and plastic lid, and then spun at 500 rpm (approximately 60×gravity) with slow braking. The plates were incubated at room temperature for 60-90 minutes before incubation at 33° C. with 5% CO2 overnight prior to compound or cytokine addition.
# Image analysis was performed using MetaXpress software from MDC and CellProfiler software from the Broad Institute of Harvard and MIT.
# Compound addition and incubation was performed as described for the LSC coculture screen above, but without a media change or readdition of the compound.
# The selected set was screened in 8-point dose against both normal HSPCs with a high number of replicates (6) and LSC-enriched leukemia cells, each cocultured on primary MSCs.
# [2] = system: LSC-enriched leukemia cells (MLL-AF9); experiment: Leukemia coculture assay on primary MSC stroma (cobblestoning readout); type: cell-based, murine; conditions: for leukemia-selective activity in coculture vs normal HSPCs: primary MSC stroma
# Method: Whole bone marrow were harvested from C57/B16 actin-dsRed mice (006051, Jackson Labs), subjected to red blood cell lysis (Qiagen), then granulocyte-macrophage progenitors (GMPs) were isolated by Fluorescence-activated cell sorting (FACsAria, Becton Dickinson). GMPs were spinfected twice (2500 rpm, 90 min, 37 C) in the presence of mIL3 (10 ng/ml, Peprotech), mIL6 (10 ng/ml, Peprotech), and mSCF (10 ng/ml, Peprotech) with pMSCV-MLL-AF9-Neo virus then transplanted into lethally irradiated C57/B16 recipients. After disease onset, the spleens were harvested and transplanted into sublethally irradiated secondary recipients. Subsequent transplantation of bulk spleen cells from leukemic secondary mice was repeated twice to generate leukemic GMPs from quaternary transplant leukemic mouse bone marrow.
# Long bones and hips from moribund leukemic mice were harvested, cleaned, crushed and sequentially passed through 100 and 70 μM filters (Falcon). The cells were RBC lysed (Qiagen) and stained in PBS+2% FBS (Omega). Antibodies included lineage markers CD4, CD8, Gr1, Mac1, IL-7R, and Ter119 (Caltag), c-kit (17-1172-83, eBioscience), Sca-1 (11-5981-82, eBioscience), CD34 (11-0341-85, eBioscience), and CD16/32 (25-0161-82, eBioscience). Hoechst 33258 (H21491, Invitrogen) was also used, to identify live cells. Cells were sorted on a FacsAria II (Becton Dickinson).
# The humerii, tibiae, ilia, femurs, and spine were isolated from actin-GFP mice (000329, Jackson Lab) crushed using a mortar and pestle, washed in phosphate-buffered saline (PBS) without magnesium and calcium (Gibco) with 0.5% fetal bovine serum (FBS) (HyClone) and filtered through a 70-μm filter. Red blood cell lysis was performed with ammonium-chloride/potassium-chloride (ACK) lysing buffer (Lonza), the cells were resuspended in α-MEM (StemCell Technologies), 20% FBS (HyClone) and 1× Pen-Strep (CellGro), plated in 25 ml in 150-cm^2 tissue-culture flasks (three per mouse), and incubated at 33° C. with 5% CO2. After 2-3 days, the medium was replaced with fresh α-MEM with 20% FBS. After 8-14 days, the cells were rinsed, split by trypsinization (CellGro), pooled, filtered through a 70 μm filter, replated at 3-4 million cells per 150-cm^2 tissue-culture flask, and grown at 33° C. with 5% CO2 for 3-4 days until nearly confluent. The cells were trypsinized, filtered, and resuspended in 0.5% FBS in PBS with biotin-conjugated anti-mouse CD105 antibody (eBioscience) for 15-30 minutes at room temperature. The CD105-labeled cells were incubated with Dynabead M-280 streptavidin-linked magnetic beads (Invitrogen) for 15-30 minutes at 4° C. with agitation and isolated using magnetic separation and rinsed once. The CD105^+ cell fraction was replated at 1-2 million cells per 150-cm^2 tissue-culture flask and incubated at 33° C. with 5% CO2 for 2-3 days.
# The MSCs were trypsinized, filtered, diluted in phenol-red-free alpha-MEM with 20% FBS, and plated (30 μl for a total of 2000 cells per well) on 384-well clear-bottomed black tissue-culture treated plate (3712, Corning) pretreated with fibronectin (Millipore). Plate covers (VWR) were added, the plates were spun and at 500 with slow braking, and the cells were incubated at room temperature for 60-90 minutes before incubation at 33° C. with 5% CO2 for 3 days prior to hematopoietic cell plating. […]
# [3] = system: normal primary human CD34+ cells; experiment: Alamar Blue assay for human progenitor cell toxicity; conditions: for IC50: read-out: Normal Progenitor* IC50
# Method: Normal G-CSF mobilized CD34+ cells (AllCells, LLC, Emeryville, Calif.), normal BM CD34 cells (MSKCC, New York, N.Y.) and cord blood CD34+ cells (New York Blood Center, New York) were previously frozen and thawed out before the proliferation assay was set up in 384-well plates. Briefly, 50 μl of IMDM medium containing 20% FBS (Gemini Bio-Product, West Sacramento, Calif.), 20 ng/ml of recombinant human Kit Ligand (rhKL), 20 ng/ml of rh-Interleukin-3 (rhIL-3), 20 ng/ml of rhG-CSF, 6 units/ml of rhEPO, 10-42-mercaptoethanol, 2 mM glutamine, 50 u/ml penicillin, 50 μg/ml streptomycin, 1,000 viable CD34+ cells in the presence of various doses of Broad compounds (drug-treated group) or 0.1% DMSO (control group) were incubated at 37° C. After 6 days, 5 μl of AlamaBlue (AbD Serotec, Raleigh, N.C.) was added to each well and further incubated overnight. The fluorescence signal was then measured with GeminiXS microplate reader (Molecular Devices, Sunnyvale, Calif.). Effect of small molecules to proliferation of CD34+ cells was reported as Relative fluorescent intensity (Relative Fluorescent Intensity=Fluorescent Intensity (drug-treated)/Fluorescent Intensity (Control).
# Finally, experiments were performed to examine whether BRD7116 or lovastatic acid were likely to cause myelosuppression, a type of deleterious toxicity in patients resulting from harm to normal human hematopoietic progenitor cells. This consideration is especially important as conventional therapies currently used in the clinic have myelosuppressive toxicities that are dose-limiting. To this end, a hematopoietic progenitor assay was employed to compare the effects of BRD7116 and lovastatic acid to effects given by such known myelosuppressive compounds. In this assay, normal primary human CD34^+ cord blood cells were plated with cytokines in suspension, treated with compound for 7 days, and then examined for viability relative to DMSO treated controls.
# [4] = system: normal murine HSPCs; experiment: Triple coculture (LSCs and HSPCs on primary MSCs), normal HSPCs; conditions: read-out: Normal HSPC* IC50
# Method: (§1) As in the original assay approach, treatment of these triple cocultures began one day after hematopoietic cell plating and was assessed 5 days later.
# (§2) An in vitro therapeutic index was determined for each compound, a comparative measure of the potential for anti-LSC efficacy relative to the potential for dose-limiting toxicities to normal HSCs (myeloablation), or to normal progenitors (myelosuppression). Specifically, ratios were created using the IC50s for primary murine HSPCs in triple coculture as the numerator, and the IC50s for primary murine leukemia inhibition in triple coculture as the denominator, toward assessing the potential for HSC harm relative to LSC inhibition.
# [5] = system: MLL-AF9 LSC; experiment: Triple coculture (LSCs and HSPCs on primary MSCs), leukemia cells; type: cell-based, murine; conditions: murine LSCs in triple coculture with HSPCs on MSCs
# Method: as §1, §2
# [6] = Mus musculus, read-out: Normal IC50, HSPCs on primary MSC stroma, 8-point dose
# [7] = Mus musculus, MLL-AF9, LSCs on primary MSC stroma, 8-point dose, read-out: Leukemia IC50
# [8] = Mus musculus, read-out: Normal IC50, statins (acid form), HSPCs cocultured on primary MSC stroma
# [9] = Mus musculus, MLL-AF9, statins (acid form), LSCs cocultured on primary MSC stroma, read-out: Leukemia IC50
molecule,measurement,setting,value
COc1cc2c(cc1O)CC[C@@H]1[C@@H]2CC[C@]2(C)[C@@H](O)CC[C@@H]12 [2-Methoxy estradiol],IC50,[1]; [6],> 20000 nM
same,IC50,[2]; [7],77 nM
same,leukemia-selective activity in coculture vs normal HSPCs,[2],displayed leukemia selectivity
c1cc(CN2CCCNCCNCCCNCC2)ccc1CN1CCCNCCNCCCNCC1 [AMD3100],leukemia-selective activity in coculture vs normal HSPCs,[2],showed selectivity for LSCs over HSPCs
Nc1ccn([C@@H]2O[C@H](CO)[C@@H](O)[C@@H]2O)c(=O)n1 [Ara-C],toxicity to hematopoietic progenitor cells,"[3]; 7 days of exposure, viability relative to DMSO",kill progenitors; also recorded: displayed toxicity
same,IC50,"[3]; normal human hematopoietic progenitors, 7 days",2500 nM
same,IC50,[4]; normal murine HSPCs in triple coculture with LSCs on primary MSCs,5000 nM
same,IC50,[5],2500 nM
CC(C)c1c(C(=O)Nc2ccccc2)c(-c2ccccc2)c(-c2ccc(F)cc2)n1CC[C@@H](O)C[C@@H](O)CC(=O)O [Atorvastatin],IC50,[1]; [8],> 20000 nM
same,IC50,[2]; [9],≤ 1900 nM
same,leukemia-selective activity in coculture vs normal HSPCs,[2],selectively inhibited leukemia cobblestoning
CC[n+]1c(/C=C2\C=C(C)CC(C)(C)C2)oc2ccccc21 [BRD0638],IC50,[1]; [6],> 20000 nM
same,IC50,[2]; [7],≤ 10 nM
CC[n+]1c(/C=C2/C=C(C)CC(C)C2)sc2ccccc21 (stereo not drawn) [BRD1319],IC50,[1]; [6],> 20000 nM
same,IC50,[2]; [7],≤ 10 nM
CCOc1ccccc1NC(=O)C(C)Oc1ccc(OC)cc1 (stereo not drawn) [BRD1686],IC50,[1]; [6],> 20000 nM
same,IC50,[2]; [7],1420 nM
O=C(c1ccccc1)c1cc[n+](Cc2ccccn2)cc1 [BRD1856],IC50,[1]; [6],> 20000 nM
same,IC50,[2]; [7],813 nM
C[C@@H]1CN([C@@H](C)CO)C(=O)c2cccc(NC(=O)Nc3ccccc3)c2O[C@@H]1CN(C)Cc1ccc(C(=O)Nc2ccccc2N)cc1 [BRD6708],IC50,[1]; [6],> 20000 nM
same,IC50,[2]; [7],2140 nM
COc1cc2c(cc1OC)-c1c(C#N)c(-c3ccc(C)cc3)c(C(=O)c3cccs3)n1CC2 [BRD8404],IC50,[1]; [6],> 20000 nM
same,IC50,[2]; [7],149 nM
C[C@@H]1CN([C@@H](C)CO)C(=O)c2cccc(NC(=O)C3CCCCC3)c2O[C@@H]1CN(C)Cc1ccc(C(=O)Nc2ccccc2N)cc1 [BRD9608],IC50,[1]; [6],~20000 nM
same,IC50,[2]; [7],699 nM
COCc1c(C(C)C)nc(C(C)C)c(/C=C/[C@@H](O)C[C@@H](O)CC(=O)O)c1-c1ccc(F)cc1 [Cerivastatin],IC50,[1]; [8],> 20000 nM
same,IC50,[2]; [9],< 10 nM
COc1cccc2c1C(=O)c1c(O)c3c(c(O)c1C2=O)C[C@@](O)(C(C)=O)C[C@@H]3O[C@H]1C[C@H](N)[C@H](O)[C@H](C)O1 [Daunorubicin],IC50,"[3]; Homo sapiens, 168 h",20 nM
same,IC50,[4]; Mus musculus,50 nM
CC(C)n1c(/C=C/C(O)CC(O)CC(=O)O)c(-c2ccc(F)cc2)c2ccccc21 (stereo not drawn) [Fluvastatin],IC50,[1]; [8],> 20000 nM
same,IC50,[2]; [9],27.9 nM
C=C1C(=O)O[C@@H]2[C@H]3O[C@]3(C)CC/C=C(\C)CC[C@@H]12 [Parthenolide],IC50,[1]; [6],> 20000 nM
same,IC50,[2]; [7],7500 nM
COc1cc(/C=C/C(=O)N2CCC=CC2=O)cc(OC)c1OC [Piperlongumine],IC50,"[1]; Mus musculus, read-out: Normal IC50",~20000 nM
same,IC50,"[2]; Mus musculus, MLL-AF9, read-out: Leukemia IC50",379 nM
CC(C)c1nc(N(C)S(C)(=O)=O)nc(-c2ccc(F)cc2)c1/C=C/[C@@H](O)C[C@@H](O)CC(=O)O [Rosuvistatin],IC50,"[1]; read-out: Normal IC50, statins (acid form), HSPCs cocultured on primary MSC stroma",> 20000 nM
same,leukemia-selective activity in coculture vs normal HSPCs,[2],selectively inhibited leukemia cobblestoning
same,IC50,"[2]; statins (acid form), LSCs cocultured on primary MSC stroma, read-out: Leukemia IC50",1220 nM
CCC(C)(C)C(=O)O[C@H]1C[C@@H](C)C=C2C=C[C@H](C)[C@H](CC[C@@H]3C[C@@H](O)CC(=O)O3)[C@H]21 [Simvastatin],IC50,[1]; [8],> 20000 nM
same,IC50,[2]; [9],≤ 15 nM
Celastrol,IC50,"[1]; read-out: Normal IC50, HSPCs on primary MSC stroma, 8-point dose",> 20000 nM
same,IC50,"[2]; LSCs on primary MSC stroma, 8-point dose, read-out: Leukemia IC50",102 nM
